According to US20110111016A1, “NON-DNA BASE-CONTAINING POLYNUCLEOTIDE COMPOSITIONS AND THEIR USE FOR THE MODULATION OF IMMUNE RESPONSES” (priority 2009, published 2011):

Key:
human TLR9 = biological target: T1, human TLR9 (Homo sapiens, UniProt Q9NR96); assay: NF-κB activation (secreted alkaline phosphatase reporter) in HEK293 cells expressing human TLR9; assay type: cell-based; conditions: HEK293/hTLR9 cell line; polynucleotide final concentration 10 μg/mL; 16-20 hours
T1 construct: host or cells: HEK293
T1 sequence (Q9NR96 26-1032): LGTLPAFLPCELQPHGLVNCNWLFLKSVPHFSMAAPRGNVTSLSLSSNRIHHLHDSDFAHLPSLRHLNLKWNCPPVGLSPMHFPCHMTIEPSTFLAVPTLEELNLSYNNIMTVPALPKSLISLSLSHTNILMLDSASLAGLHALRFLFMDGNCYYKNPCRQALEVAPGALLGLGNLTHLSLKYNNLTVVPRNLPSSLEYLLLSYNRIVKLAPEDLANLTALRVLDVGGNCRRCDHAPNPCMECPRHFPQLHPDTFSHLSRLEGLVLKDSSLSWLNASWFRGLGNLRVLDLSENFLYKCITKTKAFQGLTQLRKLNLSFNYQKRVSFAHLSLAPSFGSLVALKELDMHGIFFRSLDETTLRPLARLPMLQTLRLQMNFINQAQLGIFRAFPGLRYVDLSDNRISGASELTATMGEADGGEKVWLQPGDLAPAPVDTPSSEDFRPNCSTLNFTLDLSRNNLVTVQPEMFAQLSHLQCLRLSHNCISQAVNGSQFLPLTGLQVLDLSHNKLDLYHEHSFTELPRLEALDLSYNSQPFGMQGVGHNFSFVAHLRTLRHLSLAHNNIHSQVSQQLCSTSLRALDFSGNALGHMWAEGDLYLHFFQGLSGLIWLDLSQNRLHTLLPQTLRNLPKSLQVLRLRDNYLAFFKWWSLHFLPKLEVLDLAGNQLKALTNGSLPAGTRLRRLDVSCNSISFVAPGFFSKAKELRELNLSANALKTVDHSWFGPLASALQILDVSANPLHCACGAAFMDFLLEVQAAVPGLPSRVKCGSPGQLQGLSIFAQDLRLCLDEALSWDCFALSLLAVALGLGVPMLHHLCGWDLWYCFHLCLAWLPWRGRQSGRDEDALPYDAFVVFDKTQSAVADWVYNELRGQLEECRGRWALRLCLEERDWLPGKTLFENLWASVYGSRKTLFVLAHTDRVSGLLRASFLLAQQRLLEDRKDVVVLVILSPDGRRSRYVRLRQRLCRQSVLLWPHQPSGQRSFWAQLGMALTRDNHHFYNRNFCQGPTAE
Method: Toll-like receptors (TLR) are known to interact with a number of natural and synthetic molecules that can function as immune adjuvants. Examples of these molecules are Poly (I:C) polynucleotides, lipopolysaccharide and CpG-containing polynucleotides. The interaction of non-DNA base-containing polynucleotides (SEQ ID NOs: 1-3) to interact with TLR and induce down-stream signaling was tested by assessing NF-κB activation in HEK293 cells expressing human TLR2, 3, 4, 5, 7, 8 and 9. TLR engagement was determined by measurement of secreted alkaline phosphatase, under the control of a reporter inducible by NF-κB. Appropriate positive controls were used for each TLR. […] HEK293 cells containing the appropriate TLR and NF-κB reporting system (InvivoGen, San Diego, Calif., USA) were placed in wells of 96 well plates (25,000-50,000 cells, in a final volume of 200 μL medium designed for the detection of NF-κB induced secreted alkaline phosphatase expression), and incubated with non-DNA base-containing polynucleotides or positive controls for 16-20 hours. TLR activating activity was determined by measurement of absorbance at 650 nm wavelength using a Coulter AD340C absorbance detector. The results shown are expressed as Optical Density (OD).

NF-κB control cells = assay: NF-κB reporter control cells (secreted alkaline phosphatase); assay type: cell-based; conditions: polynucleotide final concentration 10 μg/mL, 16-20 hours
Method: Toll-like receptors (TLR) are known to interact with a number of natural and synthetic molecules that can function as immune adjuvants. Examples of these molecules are Poly (I:C) polynucleotides, lipopolysaccharide and CpG-containing polynucleotides. The interaction of non-DNA base-containing polynucleotides (SEQ ID NOs: 1-3) to interact with TLR and induce down-stream signaling was tested by assessing NF-κB activation in HEK293 cells expressing human TLR2, 3, 4, 5, 7, 8 and 9. TLR engagement was determined by measurement of secreted alkaline phosphatase, under the control of a reporter inducible by NF-κB. Appropriate positive controls were used for each TLR. The non-DNA base-containing polynucleotides were dissolved in sterile water at a concentration of 100 μg/mL, and used at a final concentration of 10 μg/mL. HEK293 cells containing the appropriate TLR and NF-κB reporting system (InvivoGen, San Diego, Calif., USA) were placed in wells of 96 well plates (25,000-50,000 cells, in a final volume of 200 μL medium designed for the detection of NF-κB induced secreted alkaline phosphatase expression), and incubated with non-DNA base-containing polynucleotides or positive controls for 16-20 hours. TLR activating activity was determined by measurement of absorbance at 650 nm wavelength using a Coulter AD340C absorbance detector. The results shown are expressed as Optical Density (OD).

| Substance | TLR activation, Optical Density at 650 nm, hTLR9 (human TLR9) | Optical Density at 650 nm, NF-κB control cells (NF-κB control cells) |
| --- | --- | --- |
| IIGTII [SEQ ID NO: 3] | 0.083 | 0.074 |
| UUGTUU [SEQ ID NO: 2] | 0.090 | 0.076 |
| NebGGTGNeb (DNA NGGTGN; Nebularine at both ends, sugar and linkages not given here, further chemistry not given here) [SEQ ID NO: 1, 5′-OH, 3′-OH non-DNA base-containing polynucleotide] | 0.074 | 0.078 |
